In patent publication US11471387B2, “Oral cavity care method and oral cavity care system” (priority 2017, dated 2022):

Columns and labels:
[1] = test system: tissue cells (FIGS. 6A, 6C); assay: Safety test, survival rate of tissue cells (FIGS. 6A and 6C)
[2] = test system: tissue cells (FIGS. 6B, 6D); assay: Safety test, survival rate of tissue cells (FIGS. 6B and 6D)

SMILES: [H]/N=C(\N/C(=N/[H])NCCCCCCNC(=N)NC(=N)Nc1ccc(Cl)cc1)Nc1ccc(Cl)cc1 [chlorhexidine]
- 50% survival rate of tissue cells (time) ([1]; FIG. 6A): 10.8 h
- cytotoxicity with time ([1]; tissue cells of FIGS. 6A/6C): cytotoxic with time
- 50% survival rate of tissue cells (time) ([2]; FIG. 6B): 8.4 h
- cytotoxicity with time ([2]; tissue cells of FIGS. 6B/6D): cytotoxic with time
